According to US4820821A, “Novel pyridazinone-imines and their physiologically tolerated addition salts with acids, their preparation and therapeutic agents containing these compounds” (BASF Aktiengesellschaft, priority 1981, dated 1989):

What follows are compounds tested on reserpine-induced hypothermia (assay: Antidepressive action: reserpine antagonism, inhibition of reserpine-induced hypothermia of the mouse). Settings: Mus musculus; Table 1; oral administration 60 min before reserpine; dose based on the base; read-out: ED 50% (dose which inhibits the reserpine-induced hypothermia of the mouse by 50%).
Format: in vivo, male Swiss mice
Experimental: Antidepressants effect dose-dependent inhibition of this hypotherma. The test substances are administered orally 60 minutes before the administration of reserpine.
The dose which effects 50% inhibition of the reserpine-induced hypothermia is determined, as the ED 50%, from the linear regression between log dose (mg/kg) and relative reduction in hypothermia (Δ%).

Point of comparison: `COc1cc(=NC(=O)c2ccccc2Cl)cnn1-c1ccccc1` [Example 64], ED50 1.27 mg/kg. Against it:
- CNC(=O)N=c1ccn(-c2ccccc2)nc1 [Example 31, 1,4-dihydro-4-(methylcarbamyl)-imino-1-phenylpyridazine] — 4.5-fold lower, 0.28 mg/kg
- O=C(N=c1ccn(-c2ccccc2)nc1)OCc1ccccc1 [Example 34] — 1.8-fold lower, 0.71 mg/kg
- C=CCOC(=O)N=c1ccn(-c2ccccc2)nc1 [Example 35] — 5.1-fold lower, 0.25 mg/kg
- CCSC(=O)N=c1ccn(-c2ccccc2)nc1 [Example 36] — 1.6-fold higher, 2 mg/kg
- CC(C)NC(=O)N=c1ccn(-c2ccccc2)nc1 [Example 37] — 1.8-fold lower, 0.7 mg/kg
- COc1cc(=NC(C)=O)cnn1-c1ccccc1 [Example 48, 4-acetylimino-1,4-dihydro-6-methoxy-1-phenylpyridazine perchlorate] — within 1.5-fold, 1.1 mg/kg
- CCOc1cc(=NC(C)=O)cnn1-c1ccccc1 [Example 49] — within 1.5-fold, 1.71 mg/kg
- CCC(=O)N=c1cnn(-c2ccccc2)c(OC)c1 [Example 50] — 7.1-fold lower, 0.18 mg/kg
- CCCC(=O)N=c1cnn(-c2ccccc2)c(OC)c1 [Example 52] — within 1.5-fold, 1.4 mg/kg
- COc1cc(=NC(=O)c2ccccc2)cnn1-c1ccccc1 [Example 60] — within 1.5-fold, 0.93 mg/kg
- COc1cc(OC)cc(C(=O)N=c2cnn(-c3ccccc3)c(OC)c2)c1 [Example 62] — 1.9-fold lower, 0.66 mg/kg

Same assay, conditions: Table 1; amezinium = 1.00; oral

Point of comparison: `CCC(=O)N=c1cnn(-c2ccccc2)c(OC)c1` [Example 50], “R.A. (relative activity), reserpine antagonism” value 4.07. Against it:
- CNC(=O)N=c1ccn(-c2ccccc2)nc1 [Example 31, 1,4-dihydro-4-(methylcarbamyl)-imino-1-phenylpyridazine] — lower, 2.62
- O=C(N=c1ccn(-c2ccccc2)nc1)OCc1ccccc1 [Example 34] — lower, 1.03
- C=CCOC(=O)N=c1ccn(-c2ccccc2)nc1 [Example 35] — lower, 2.93
- CCSC(=O)N=c1ccn(-c2ccccc2)nc1 [Example 36] — lower, 0.37
- CC(C)NC(=O)N=c1ccn(-c2ccccc2)nc1 [Example 37] — lower, 1.05
- COc1cc(=NC(C)=O)cnn1-c1ccccc1 [Example 48, 4-acetylimino-1,4-dihydro-6-methoxy-1-phenylpyridazine perchlorate] — lower, 0.67
- CCOc1cc(=NC(C)=O)cnn1-c1ccccc1 [Example 49] — lower, 0.43
- CCCC(=O)N=c1cnn(-c2ccccc2)c(OC)c1 [Example 52] — lower, 0.52
- COc1cc(=NC(=O)c2ccccc2)cnn1-c1ccccc1 [Example 60] — lower, 0.79
- COc1cc(OC)cc(C(=O)N=c2cnn(-c3ccccc3)c(OC)c2)c1 [Example 62] — lower, 1.11
- COc1cc(=NC(=O)c2ccccc2Cl)cnn1-c1ccccc1 [Example 64] — lower, 0.58

The compounds below were run on blood pressure (assay: Effect on the blood pressure: hypertensive action, pithed rat). Settings: Rattus norvegicus, ip; Table 1; i.p. administration; dose based on the base; read-out: ED 20% hypertensive action (dose which increases the blood pressure of the pithed rat by 20%).
Format: in vivo, male Sprague-Dawley rats
Experimental: The measurement of the blood pressure in the carotid artery was carried out by means of Statham transducers. The substance was administered in the jugular vein (as an aqueous solution, 1 ml/kg) or intraperitoneally (as a tragacanth suspension, 2 ml/kg). The ED 20% is determined as the dose which increases the blood pressure by 20%.

Point of comparison: `CCC(=O)N=c1cnn(-c2ccccc2)c(OC)c1` [Example 50], ED20 3.16 mg/kg. Against it:
- COc1cc(=NC(C)=O)cnn1-c1ccccc1 [Example 48, 4-acetylimino-1,4-dihydro-6-methoxy-1-phenylpyridazine perchlorate] — 2.2-fold higher, 6.81 mg/kg
- CCOc1cc(=NC(C)=O)cnn1-c1ccccc1 [Example 49] — within 1.5-fold, 4.64 mg/kg
- CCCC(=O)N=c1cnn(-c2ccccc2)c(OC)c1 [Example 52] — the same, 3.16 mg/kg
- COc1cc(=NC(=O)c2ccccc2)cnn1-c1ccccc1 [Example 60] — within 1.5-fold, 2.15 mg/kg
- COc1cc(=NC(=O)c2ccccc2Cl)cnn1-c1ccccc1 [Example 64] — higher, > 10 mg/kg

Same assay, conditions: Rattus norvegicus, iv; Table 1; i.v. administration; dose based on the base; read-out: ED 20% hypertensive action (dose which increases the blood pressure of the pithed rat by 20%)

Point of comparison: `CC(C)NC(=O)N=c1ccn(-c2ccccc2)nc1` [Example 37], ED20 1 mg/kg. Against it:
- CNC(=O)N=c1ccn(-c2ccccc2)nc1 [Example 31, 1,4-dihydro-4-(methylcarbamyl)-imino-1-phenylpyridazine] — within 1.5-fold, 1.47 mg/kg
- O=C(N=c1ccn(-c2ccccc2)nc1)OCc1ccccc1 [Example 34] — 10-fold lower, 0.1 mg/kg
- C=CCOC(=O)N=c1ccn(-c2ccccc2)nc1 [Example 35] — 10-fold lower, 0.1 mg/kg
- CCSC(=O)N=c1ccn(-c2ccccc2)nc1 [Example 36] — 3.2-fold lower, 0.316 mg/kg
- COc1cc(OC)cc(C(=O)N=c2cnn(-c3ccccc3)c(OC)c2)c1 [Example 62] — 1.8-fold lower, 0.56 mg/kg

Same assay, conditions: Table 1; i.p. administration; amezinium = 1.00

Point of comparison: `COc1cc(=NC(C)=O)cnn1-c1ccccc1` [Example 48, 4-acetylimino-1,4-dihydro-6-methoxy-1-phenylpyridazine perchlorate], “R.A. (relative activity), hypertensive action” value 0.05. Against it:
- CCOc1cc(=NC(C)=O)cnn1-c1ccccc1 [Example 49] — higher, 0.08
- CCC(=O)N=c1cnn(-c2ccccc2)c(OC)c1 [Example 50] — higher, 0.12
- CCCC(=O)N=c1cnn(-c2ccccc2)c(OC)c1 [Example 52] — higher, 0.12
- COc1cc(=NC(=O)c2ccccc2)cnn1-c1ccccc1 [Example 60] — higher, 0.17

With `COc1cc(=NC(=O)c2ccccc2Cl)cnn1-c1ccccc1` [Example 64] the “R.A. (relative activity), hypertensive action” value was less than 0.04.

Same assay, conditions: Table 1; i.v. administration; amezinium = 1.00

Point of comparison: `CCSC(=O)N=c1ccn(-c2ccccc2)nc1` [Example 36], “R.A. (relative activity), hypertensive action” value 0.16. Against it:
- CNC(=O)N=c1ccn(-c2ccccc2)nc1 [Example 31, 1,4-dihydro-4-(methylcarbamyl)-imino-1-phenylpyridazine] — lower, 0.03
- O=C(N=c1ccn(-c2ccccc2)nc1)OCc1ccccc1 [Example 34] — higher, 0.50
- C=CCOC(=O)N=c1ccn(-c2ccccc2)nc1 [Example 35] — higher, 0.50
- CC(C)NC(=O)N=c1ccn(-c2ccccc2)nc1 [Example 37] — lower, 0.05
- COc1cc(OC)cc(C(=O)N=c2cnn(-c3ccccc3)c(OC)c2)c1 [Example 62] — lower, 0.09

Each compound was assayed on reserpine-induced hypothermia / blood pressure (assay: Quotient ED 50% antidepressive action / ED 20% hypertensive action). Settings: compounds of Table 1.
Format: in vivo, mouse / rat
Source text: This is evident from the fact that the quotient defined above differs wtih respect to the comparative compounds. […] This arises, inter alia, from the fact that the hypertensive ED 20 constitutes the denominator of the quotient. It is possible that the unforeseeable selective direction of action is attributable to the special substitution,in accordance with the invention, at the 4-imino group.

`CNC(=O)N=c1ccn(-c2ccccc2)nc1` [Example 31, 1,4-dihydro-4-(methylcarbamyl)-imino-1-phenylpyridazine] was tested, and the “factor by which the quotient of antidepressive action and hypertensive action is smaller than in the case of amezinium” value was 77.

Same assay, conditions: hypertensive test i.p.

Point of comparison: `CCC(=O)N=c1cnn(-c2ccccc2)c(OC)c1` [Example 50], “Q (quotient ED 50% antidepressive action/ED 20% hypertensive action)” value 0.06. Against it:
- COc1cc(=NC(C)=O)cnn1-c1ccccc1 [Example 48, 4-acetylimino-1,4-dihydro-6-methoxy-1-phenylpyridazine perchlorate] — higher, 0.16
- CCOc1cc(=NC(C)=O)cnn1-c1ccccc1 [Example 49] — higher, 0.37
- CCCC(=O)N=c1cnn(-c2ccccc2)c(OC)c1 [Example 52] — higher, 0.44
- COc1cc(=NC(=O)c2ccccc2)cnn1-c1ccccc1 [Example 60] — higher, 0.43

For `COc1cc(=NC(=O)c2ccccc2Cl)cnn1-c1ccccc1` [Example 64], the “Q (quotient ED 50% antidepressive action/ED 20% hypertensive action)” value was less than 0.13.

Same assay, conditions: hypertensive test i.v.

Point of comparison: `CC(C)NC(=O)N=c1ccn(-c2ccccc2)nc1` [Example 37], “Q (quotient ED 50% antidepressive action/ED 20% hypertensive action)” value 0.70. Against it:
- CNC(=O)N=c1ccn(-c2ccccc2)nc1 [Example 31, 1,4-dihydro-4-(methylcarbamyl)-imino-1-phenylpyridazine] — lower, 0.19
- O=C(N=c1ccn(-c2ccccc2)nc1)OCc1ccccc1 [Example 34] — higher, 7.10
- C=CCOC(=O)N=c1ccn(-c2ccccc2)nc1 [Example 35] — higher, 2.50
- CCSC(=O)N=c1ccn(-c2ccccc2)nc1 [Example 36] — higher, 6.33
- COc1cc(OC)cc(C(=O)N=c2cnn(-c3ccccc3)c(OC)c2)c1 [Example 62] — higher, 1.18
